# Legend:
# [1] = Luminol reaction, amount of luminescence (hydroxyl radicals generated) measured with AB-2270 Luminescencer Octa
# Procedure: In the step of preparing the reaction products of the samples and iron, the ability to catalyze the Fenton reaction was examined with different mixing ratios of the samples to iron.
# The above-mentioned samples were each mixed with iron (III) chloride (1 mM FeCl3) at different mixing ratios as shown in FIG. 2 to prepare reaction products in the same manner as in Example 1.
# (§1) Then, for each of the aqueous solutions containing the reaction products, the amount of luminescence (amount of hydroxyl radicals generated) provided by the luminol reaction was measured using the AB-2270 Luminescencer Octa to determine the ability of the reaction products to catalyze the Fenton reaction. […]
# The above-mentioned samples were added to different concentrations of iron (III) chloride (0.02, 0.1, 0.2, 1, 5, and 10 mM) at the optimum mixing ratios determined in Example 3 (ascorbic acid: 0.5 mM, squeezed grape juice: 40 mg/L in terms of total polyphenols, chaff vinegar stock solution: 50 g/L, with respect to 1 mM FeCl3) to prepare reaction products in the same manner as in Example 1.
# as §1
# [2] = Ability to catalyze Fenton reaction, luminol reaction observed by eye; details: reaction product solution added to 100 ml luminol solution (1 g/L luminol, 4 g/L sodium hydroxide, 0.3% hydrogen peroxide)
# Source text: With respect to the reaction products of the samples, which were confirmed to have iron reducing effects in Example 1, and iron, the fact that the reaction products have abilities to catalyze the Fenton reaction was examined by a luminol reaction.
# It should be noted that the luminol reaction means a luminescence reaction caused by oxidizing luminol by generation of hydroxyl radicals.
# Small amounts of the aqueous solutions containing the reaction products prepared in Example 1 were each added to 100 ml of a luminol solution (1 g/L luminol, 4 g/L sodium hydroxide, 0.3% hydrogen peroxide), and the presence or absence of luminescence was observed.
# [3] = test system: Escherichia coli; details: 10 mM hydrogen peroxide, 1.0x10^6 cfu/mL, 10 minutes of treatment, TTC medium plate
SMILES,ability to catalyze the Fenton reaction ([1]; reaction products with iron at optimum mixing ratios and concentrations (Example 5)),optimum mixing concentration for ability to catalyze the Fenton reaction ([1]; with respect to 1 mM FeCl3),presence or absence of luminescence [2],sterilization effect (survival of Escherichia coli) [3]
"O=C1O[C@H]([C@@H](O)CO)C(O)=C1O [Sample 1, ascorbic acid]",very high,about 0.5 mM,blue fluorescence was observed,–
OO [hydrogen peroxide],–,–,–,a large amount of Escherichia coli survived

# — US9162219B2, “Fenton reaction catalyst produced using reducing organic substance as raw material” (INCORPORATED ADMINISTRATIVE AGENCY, NATIONAL AGRICULTURE …, priority 2011, dated 2015)
